{"source": "patent US20240207269A1", "about": "“USES OF HETEROCYCLIC INHIBITORS OF ERK1/2” (Erasca, Inc., priority 2021, published 2024)", "test": "First-in-Human (FIH) Phase 1 study comparing QW and QD regimens", "format": "in vivo", "settings": "QW preferred to QD", "method": "Both QW and QD regimens were evaluated in the First-in-Human (FIH) Phase 1 study. […] The observed data in indicate that having an uninterrupted coverage over IC90 for 1-2 days can improve cancer cell killing and maintaining Ctrough below IC50 can help normal cell recovery and can improve tolerability."}
{"smiles": "Cc1cnc(NC2CCOCC2)nc1-n1cnc(C(=O)N[C@H](CN)c2cc(F)cc(Cl)c2)c1", "note": "[Compound 1, (S)—N-(2-amino-1-(3-chloro-5-fluorophenyl)ethyl)-1-(5-methyl-2-((tetrahydro-2H-pyran-4-yl)amino)pyrimidin-4-yl)-1H-imidazole-4-carboxamide]", "values": [{"measurement": "Efficacy, QW regimen compared to QD regimen", "value": "better efficacy"}, {"measurement": "Skin toxicities, QW regimen compared to QD regimen", "value": "less frequent skin toxicities"}]}
